Results taken from patent US20120225852A1, “USE OF STEROID COMPOUNDS” (priority 2009, published 2012).

Columns and labels:
[1] = system: Lymph node (LN) cells from unprimed DO11.10 TCR Tg mice; assay: OVA-stimulated lymph node cell culture, T cell proliferation; format: cell-based
[2] = system: established MOG peptide-induced EAE; assay: Established MOG peptide-induced EAE, treatment from day 13; format: in vivo, C57BL/6 mice
Text: Acute EAE was induced in C57BL/6 mice by immunizing the animals against the pathogenic myelin oligodendrocyte glycoprotein (MOG) peptide (amino acids 35-55). Mice were left untreated until disease symptoms were apparent (score 1-2) at around day 12. […] Mice were monitored daily in a blinded fashion for clinical symptoms (paralysis). Tissues (brain, spinal cord, DLNs) were collected in order to perform histological evaluation (staining with H&E on brain and spinal cord sections) and ex vivo cultures for measurement of T cell responses and cytokine release.

[3] = system: ongoing EAE in recipient mice; assay: Adoptive transfer of DLN cells from treated EAE donors into recipients with ongoing EAE; format: in vivo
Text: The donor DLN cells were obtained on day 17, which is the peak of disease for control mice. This protection was observed until day 28-30 when the mice were euthanized.

With `C[C@]12CC[C@H](O)CC1=CC[C@@H]1[C@@H]2CC[C@]2(C)C(=O)CC[C@@H]12` [DHEA, dehydroepiandrosterone] the “proliferation of the T cells that respond to the antigen” value ([1]; LN cells stimulated with OVA, vs control RPMI, FIG. 1) was “significantly decreased”, the “effect on T cell responses in general” value ([1]; overall conclusion of Example 1 (FIGS. 1-4)) was “immunosuppressive effect” and the clinical course ([2]; 2 mg/mouse i.p. daily from day 13, FIG. 16) was “significant improvement”. For the same molecule, the mean maximum score ([2]; 2 mg/mouse i.p. daily from day 13, FIG. 17) was “decrease”, the “inflammation in the spinal cord” value ([2]; 2 mg/mouse i.p. daily from day 13, FIG. 18) was “decreased inflammation” and the degree of paralysis ([2]; 2 mg/mouse i.p. daily from day 13 until day 26-28) was “significantly decreased”. The “ongoing MOG peptide-induced EAE” value ([2]; overall conclusion, treatment from day 13) was “suppressed”, the recovery of recipients ([3]; DLN cell transfer, vs PBS-treated donors, FIG. 24) was “rapid recovery” and the “mean maximum disease score” value ([3]; DLN cell transfer, vs PBS-treated donors, FIG. 25) was “significant reduction”. For the same molecule, the “EAE development in recipients” value ([3]; DLN cells of donors treated days 12-17, vs DLN cells from PBS-treated donors, FIG. 24) was “confer suppression”, the “ex vivo proliferation to MOG35-55” value ([3]; DLN cells of recipients, FIG. 26a) was “significantly decreased” and the “levels of supernatant IFN-γ” value ([3]; DLN cells of recipients, FIG. 26b) was “decreased levels”. The “levels of supernatant IL-17” value ([3]; DLN cells of recipients, FIG. 26c) was “decreased levels”, the “recruitment of CD11c+ dendritic cells” value ([3]; draining lymph nodes of recipients, FIG. 27a) was “substantially decreased” and the “recruitment of IL-17 secreting T cells” value ([3]; draining lymph nodes of recipients, FIG. 27b) was “substantially decreased”. For the same molecule, the “recruitment of CD4+ Foxp3+ regulatory T cells” value ([3]; draining lymph nodes of recipients, FIG. 27c) was “increased”.
